Assay: Solubilities of sesamin, episesamin and their mixture in various oils or fats
Assay type: physicochemical
Experimental: To prepare the lignan-class compound containing emulsion of the present invention, liquid in which a lignan-class compound is dissolved (oil phase) is first prepared. As already mentioned, a sesame oil or the like may be used as the liquid, alternatively, the liquid may be prepared by adding a powdered form of lignan-class compound to a solvent oil or fat, mixing the mixture, and fully dissolving the powdered form to the solvent while agitating the mixture while heating. The blending ratio between the lignan-class compound and the fat or oil varies with the type of the lignan-class compound and the fat, or oil that serves as a solvent and it can be set appropriately in consideration of this fact. The assignees of the subject application have discovered that two lignan-class compounds, sesamin and episesamin, and a mixture thereof had different solubilities in different fats or oils (see Table 1).

SMILES | Solubilities (%) in DG | Solubilities (%) in MCT-1 | Solubilities (%) in MCT-2 | Solubilities (%) in Olive oil | Solubilities (%) in Wheat germ oil
c1cc2c(cc1[C@H]1OC[C@H]3[C@@H]1CO[C@@H]3c1ccc3c(c1)OCO3)OCO2 [Episesamin, episesamin] | 1.0% | 2.5% | 2.5% | 0.5% | 0.75%
c1cc2c(cc1[C@H]1OC[C@H]3[C@@H]1CO[C@@H]3c1ccc3c(c1)OCO3)OCO2 [Sesamin, sesamin] | 1.25% | 4.0% | 2.0% | 0.75% | 0.75%

Source: US8685455B2, “Oil-in-water emulsions containing lignan-class compounds and compositions containing the same” (Suntory Holdings Limited, priority 2005, dated 2014)
